What was measured:
[1] = Dissolution behavior, dialysis diffusion method; assay type: physicochemical; conditions: 37° C., dialysis bag 3,500 D, 4 h
Protocol: The dissolution behavior of FA-Lipo@Til NCs in Example 3 was measured in different media (water, SGF, and SIF) at 37° C. using the dialysis diffusion method. 1 mL of Til raw material and Til NC preparation (containing 1 mg/mL of Til) were placed in a dialysis bag with a molecular weight cut-off of 3,500 D, which was then placed in 50 mL of dissolution medium and then placed in an oscillator with a frequency of 100 rpm at 37° C. Samples were taken at 1 min, 2 min, 3 min, 5 min, 10 min, 15 min, 30 min, 45 min, 60 min, 90 min, 120 min, 180 min, and 240 min, respectively. After taking the samples, the corresponding volume of medium was supplemented, and the samples were centrifuged (12,000 rpm, 10 min) and determined by HPLC. […] FA-Lipo@Til NCs were released more slowly than Til NCs. At 4 h, approximately 45% (in SGF) and 35% (in SIF) of Til in Lipo@Til NCs and FA-Lipo@Til NCs were released, while the cumulative release from Til NCs exceeded 55% (in SGF) and 65% (in SIF) within 4 h.

Caco-2 cell monolayer = Caco-2 cell monolayer transport; assay type: in vitro ADME; conditions: Til by HPLC on basolateral side, 50 μg to 100 μg Til
Protocol: The FA-Lipo@Til NCs obtained in Example 3 were tested using a Caco-2 cell culture monolayer model, Caco-2 cells were collected with a cell plating density of 1×10^5 […]. Cells were inoculated on the upper layer of the Transwell plate, 500 μL of diluted cell suspension was added to each well, and 600 μL of blank MEM medium was added to the lower layer, and the plates were placed in an incubator for culture; after 21 days of continuous culture, appropriate cell wells were selected, the upper and lower layers of the Transwell plate were replaced with HBSS balancing solution, and the plates were balanced in the incubator for 30 min. After removing the buffer, different concentrations of FA-Lipo@Til NCs (all diluted to 300 μL with HBSS containing 10% FBS) were added into the well, 100 μL of sample was taken from the lower layer of the Transwell plate at a specific time point, and an equal amount of HBSS buffer was supplemented, and the samples collected at different time points were used to detect the content of Til by HPLC. The cumulative release amount and Papp of the preparation were calculated. […] The transport amount of raw material Til through the monolayer was the lowest, while Til NCs were transported to the basolateral side over time, which was about 3 times that of the former at 4 h. […] FA ligands enhanced the internalization and transport of nanoparticles.

atherosclerotic plaques = assay: In vivo pharmacodynamic evaluation in atherosclerosis model (ORO, H&E, Masson staining); design: species or system ApoE-/- mice; conditions: p.o., 4 mg/kg once a day, 12 weeks, Model group 51.53%
Protocol: AS model mice and initial treatment plan: ApoE^-/- mice were fed a high-fat diet for 12 weeks and then randomly divided into 5 groups: Model group (normal saline group); Crude Til group (p.o., 4 mg/kg); Til NCs group (p.o., 4 mg/kg); Lipo@Til NCs group (p.o., 4 mg/kg); FA-Lipo@Til NCs group in Example 3 (p.o., 4 mg/kg). The Control group was replaced by C57BL/6J mice fed with ordinary diet in the same cycle. The drug was administered orally once a day for 12 consecutive weeks, ApoE--mice continued to eat a high-fat diet throughout the treatment, and body weight changes were recorded 2 times a week. After 12 weeks of continuous administration, the mice were fasted but allowed to drink water 12 h before the experiment. Their eyeballs were removed to collect whole blood serum, and then the mice were dissected, their heart was exposed, and a small incision was made in the right atrium, and the whole body was perfused with pre-cooled saline until the outflowing fluid became clear. […]
ORO staining of the entire aorta: fat tissue stained bright red by ORO could interfere with the observation of plaques, such that the fat tissue around the blood vessels needed to be removed with fine forceps under a stereomicroscope. […] After photographing, the images were measured using ImageJ, and the percentage of plaques in the intima area was calculated to correct for differences in body size. […]

[2] = cited from earlier work
[3] = 37° C.; cited from earlier work

What does the source list for acacetin-7-glucoside [Til]?
cumulative release of Til in SGF ([1]; SGF): about 4%; cumulative release of Til in SIF ([1]; SIF): about 4%; transport through the Caco-2 cell monolayer (Caco-2 cell monolayer): lowest; average plaque area of the aorta (ORO staining) (atherosclerotic plaques): reduced; absolute oral bioavailability [2]: 1.350±0.710%; solubility in aqueous media [3]: 1.57 µg/mL

Reference: patent publication US20250367227A1, “FOLIC ACID-MODIFIED LIPOSOME-ENCAPSULATED TILIANIN NANOCRYSTAL (FA-Lipo@Til NC), PREPARATION METHOD AND USE THEREOF” (THE 1ST AFFILIATED HOSPITAL OF SHIHEZI UNIVERSITY, priority 2024, published 2025)
